Test results as given in publication PMC7794379, “Thioesterase-mediated side chain transesterification generates potent Gq signaling inhibitor FR900359” (Nature Communications, 2021).
*1 amine or outer side, *2 acyl side, *3 side chain or, on linkers, in order; H or OH if unused. Where a SMILES comes first, the peptide text is derived from it. Bridges are numbered along the chain shown (N, C = ends). [ ]: non-standard residue; d: D form. The star is where a group is joined. Leu(3R-OH,Nα-propionyl) = CCC(=O)N[C@H](C(=O)*)[C@H](O)C(C)C; X1 = CC(C)[C@@H](O[*:3])[C@H](N[*:1])C(=O)[*:2]; Leu(3R-OH) = CC(C)[C@@H](O)[C@H](N)C(=O)O; X2 = CCCC(=O)N[C@H](C(=O)*)[C@H](O)C(C)C; NMeT = CN[C@H](C(=O)O)[C@@H](C)O; dPhLac = O=C(O)[C@H](O)Cc1ccccc1; NMeA = CN[C@@H](C)C(=O)O; NMeDha = C=C(NC)C(=O)O

What was measured:
[1] = target: T1, wild type Gαq in HEK Gαq/Gα11-null cells (Homo sapiens, UniProt P50148); test: DMR (dynamic mass redistribution) inhibition of carbachol (CCh 100 µM) response in Gαq-transfected HEK293 Gαq/Gα11-null cells; format: cell-based; details: compounds added 1 h before, 37 °C, mean ± s.e.m. of n independent replicates in technical triplicates (FR n=11, FR-Core n=4, FR-5 n=4), read-out: pIC50 (Gαq inhibition, DMR) (converted)
T1 construct: expressed in transfected cells; host or cells: CRISPR/Cas9-edited HEK293 Gαq/Gα11-null cells
T1 sequence (P50148 1-359): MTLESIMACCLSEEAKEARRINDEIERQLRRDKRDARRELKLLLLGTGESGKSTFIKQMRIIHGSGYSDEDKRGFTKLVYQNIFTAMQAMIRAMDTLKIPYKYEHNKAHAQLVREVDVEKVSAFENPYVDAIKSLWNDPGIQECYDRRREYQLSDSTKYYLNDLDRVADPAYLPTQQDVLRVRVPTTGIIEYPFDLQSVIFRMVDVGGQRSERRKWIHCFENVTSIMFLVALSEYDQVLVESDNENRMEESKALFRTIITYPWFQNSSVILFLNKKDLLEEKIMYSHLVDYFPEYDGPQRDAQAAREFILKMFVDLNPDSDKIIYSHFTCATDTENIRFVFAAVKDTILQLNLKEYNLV
Method: Label-free dynamic mass redistribution (DMR) assay
Cell culture materials were purchased from Invitrogen (Carlsbad, CA, USA). Generation of genetically engineered HEK293 cells using CRISPR/Cas9 technology to knockout the subunits of Gαq and Gα11 (Gαq/Gα11-null cells) is described elsewhere. Cells were maintained in Dulbecco’s modified Eagle’s medium (DMEM) supplemented with 10% (v/v) fetal calf serum (FCS, PAN biotech, Germany), penicillin (100 units/mL), and streptomycin (0.1 mg/mL), and kept in a humidified atmosphere with 5% CO2 at 37 °C. All cell lines were screened by PCR on a monthly basis for mycoplasma contamination and were tested negative. DMR measurements were performed analogous to prior studies[39],[40] using the Epic DMR reader (Corning, NY, USA) together with the Cybi-SELMA semi-automated electronic pipetting system (Analytik Jena AG, Jena, Germany). 24 h after transfection with the G protein αq subunit, HEK293 cells were counted and seeded on 384-well fibronectin-coated biosensor plates at a density of 17,000 cells per well. On the next day, cells were washed twice with Hanks’ buffered salt solution containing 20 mM HEPES (HBSS + HEPES) and incubated for 1 h at 37 °C in the EPIC reader. 1, 2, 3 or 7 in HBSS + HEPES were added 1 h before the measurement. The sensor plate was scanned to record a baseline optical signature (no change in basal DMR), and after the addition of compounds, DMR alterations were monitored for 3000 s at 37 °C. All data were analyzed using GraphPad Prism 8.0.0 (GraphPad Inc, La Jolla, CA, USA). Quantification of DMR signals was performed by calculation of the maximum responses. […]
Concentration-effect curves in Fig. 4a–c were normalized by setting each experimental maximal effect as 100% response. All data are expressed as mean + or ± standard error of the mean (s.e.m.) of at least three independent experiments performed in technical triplicates. […]
Supplementary Table 6: Quantification of FR, FR-Core and FR-5 inhibitory activities at wild type Gαq in HEK Gαq/Gα11-null cells. […]

[2] = target: T2, Gαq proteins (human platelet membrane preparations) (Homo sapiens, UniProt P50148); test: Competition binding vs [³H]PSB-15900 at human platelet membrane preparations; details: vs 5 nM [³H]PSB-15900; 50 µg protein; 50 mM Tris pH 7.4; 37 °C, 1 h; read-out: pIC50 (competition binding) (converted)
T2 construct: human platelet membrane preparations that natively express Gαq proteins; from tissue; host or cells: human platelet membrane preparation
T2 sequence (P50148 1-359): T1 sequence (P50148 1-359)
Method: Competition binding assay
Competition binding assays of 1 and 2 were conducted versus the radiolabeled FR derivative [³H]PSB-15900 utilizing human platelet membrane preparations that natively express Gαq proteins. The experiments were performed in 50 mM Tris, pH=7.4, in a final assay volume of 200 µl. Each assay tube contained 50 µl [³H]PSB-15900 solution in the buffer (final concentration: 5 nM), 50 µl of human platelet membrane preparation in buffer (50 µg of protein), 95 µl of buffer, and 5 µl of 1 or 2 solution, respectively, in varying concentrations dissolved in DMSO. Non-specific-binding was determined in the presence of 5 µM FR dissolved in DMSO. Incubation was performed at 37 °C for 1 h with gentle shaking and was started by the addition of the membrane preparation. The incubation was terminated by rapid filtration through GF/C glass fiber filters using a Brandel 24-well-harvester. Filters were dried, punched out, transferred to scintillation vials, and incubated for at least 6 h in scintillation cocktail (2.5 ml ProSafe FC+®, Meridian Biotechnologies Ltd, UK) prior to measurement in a liquid scintillation counter at an efficiency of 53%. Data were evaluated using GraphPad Prism 7 (GraphPad Inc., San Diego, CA, USA), and IC50 values were determined by the One site – Fit logIC50-equation.

Riptortus pedestris = test: Oral feeding toxicity, survival rate of first instar stinkbug nymphs; format: in vivo; details: 40 µM, nine days
Method: Feeding and effect determination of 1 and 2 on insects
A small cotton pad soaked with 500 µl of 1 or 2-containing water was served to first instar nymphs of the stinkbug R. pedestris for oral intake. For feeding, 1 and 2 were each dissolved in 100% MeOH and diluted with water to concentrations of 0.2, 0.04, and 0.02 µg/µl. Distilled water containing 2% MeOH was used as control. Each experiment included 20 stinkbug individuals. Insects were reared in a moisture chamber at 25 °C under a long day regimen (16 h light, 8 h dark), supplied with dried soybean seeds. The 1 or 2-containing water was exchanged every 3 d, and the survival rate was monitored every day at the same time for 9 d.
Please select the one below that is the best fit for your research. If you are not sure, read the appropriate sections before making your selection. […]
Sample size Sample size: 7 groups of each 20 animals were treated with control (1 group) and two different compounds at 3 different concentrations (6 groups). […] Sample size (size of group) was determined based on standard laboratory practice, and the available amount of the compounds for the experiments. […]
We require information from authors about some types of materials, experimental systems and methods used in many studies. […] If you are not sure if a list item applies to your research, read the appropriate section before selecting a response. […]

Compound	IC50 [1]	IC50 [2]	lethality in words, lower concentration (Riptortus pedestris)
C=C1C(=O)N[C@@H](C)C(=O)N(C)[C@@H](C)C(=O)N[C@@H]([C@H](OC(=O)[C@@H](NC(=O)CCC)[C@H](O)C(C)C)C(C)C)C(=O)N(C)[C@@H]([C@@H](C)OC)C(=O)O[C@H](C(C)C)[C@H](NC(C)=O)C(=O)O[C@H](Cc2ccccc2)C(=O)N1C [FR-5] (Ac-[X1][dPhLac][NMeDha]A[NMeA][X1](X2)[NMeT](Me); ester 1-C)	3.16 µM	–	–
C=C1C(=O)N[C@@H](C)C(=O)N(C)[C@@H](C)C(=O)N[C@@H]([C@H](O)C(C)C)C(=O)N(C)[C@@H]([C@@H](C)OC)C(=O)O[C@H](C(C)C)[C@H](NC(C)=O)C(=O)O[C@H](Cc2ccccc2)C(=O)N1C [FR-Core] (Ac-[X1][dPhLac][NMeDha]A[NMeA][Leu(3R-OH)][NMeT](Me); ester 1-C)	7.41 µM	2.75 µM	–
C=C1C(=O)N[C@@H](C)C(=O)N(C)[C@@H](C)C(=O)N[C@@H]([C@H](OC(=O)[C@@H](NC(=O)CC)[C@H](O)C(C)C)C(C)C)C(=O)N(C)[C@@H]([C@@H](C)OC)C(=O)O[C@H](C(C)C)[C@H](NC(C)=O)C(=O)O[C@H](Cc2ccccc2)C(=O)N1C [FR] (Ac-[X1][dPhLac][NMeDha]A[NMeA][X1](Leu(3R-OH,Nα-propionyl))[NMeT](Me); ester 1-C)	0.457 µM	0.0132 µM	lethal effects
